Blank lines part the entries; values can stand above or below the compound they belong to.
Columns and labels:
[1] = molecular target: T1, Tyrosine-protein kinase BTK (Homo sapiens, UniProt Q06187); assay: Induction of BTK degradation in human MINO cells; assay type: cell-based
[2] = molecular target: T1, Tyrosine-protein kinase BTK; assay: Induction of BTK degradation in human MINO cells assessed as maximum degradation relative to control; assay type: cell-based
Protein cereblon [3] = molecular target: T2, Protein cereblon (Homo sapiens, UniProt Q96SW2); assay: Induction of CRBN degradation in human HeLa cells at 1 uM incubated for 4 hrs relative to control; assay type: cell-based
T2 sequence (Q96SW2 whole entry): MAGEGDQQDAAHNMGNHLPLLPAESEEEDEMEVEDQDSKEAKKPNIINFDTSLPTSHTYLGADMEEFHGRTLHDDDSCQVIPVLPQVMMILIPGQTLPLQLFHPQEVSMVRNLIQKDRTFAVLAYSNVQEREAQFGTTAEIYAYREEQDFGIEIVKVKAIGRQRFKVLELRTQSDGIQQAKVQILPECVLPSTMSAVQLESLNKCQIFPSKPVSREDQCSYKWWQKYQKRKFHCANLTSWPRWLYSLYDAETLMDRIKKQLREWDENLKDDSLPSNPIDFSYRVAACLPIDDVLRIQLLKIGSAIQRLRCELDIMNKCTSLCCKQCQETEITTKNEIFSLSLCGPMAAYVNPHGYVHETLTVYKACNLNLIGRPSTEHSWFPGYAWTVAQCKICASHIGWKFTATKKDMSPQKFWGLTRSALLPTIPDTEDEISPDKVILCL

Protein cereblon [4] = molecular target: T2, Protein cereblon; assay: Induction of CRBN degradation in human HeLa cells incubated for 4 hrs; assay type: cell-based
[5] = molecular target: ALK tyrosine kinase receptor (Homo sapiens) (UniProt Q9UM73); assay: Induction of ALK degradation in human SU-DHL-1 cells assessed as maximum degradation at 300 nM after 12 hrs relative to control; assay type: cell-based
Sequence of ALK tyrosine kinase receptor (Homo sapiens) (Q9UM73 19-1620 limits assumed): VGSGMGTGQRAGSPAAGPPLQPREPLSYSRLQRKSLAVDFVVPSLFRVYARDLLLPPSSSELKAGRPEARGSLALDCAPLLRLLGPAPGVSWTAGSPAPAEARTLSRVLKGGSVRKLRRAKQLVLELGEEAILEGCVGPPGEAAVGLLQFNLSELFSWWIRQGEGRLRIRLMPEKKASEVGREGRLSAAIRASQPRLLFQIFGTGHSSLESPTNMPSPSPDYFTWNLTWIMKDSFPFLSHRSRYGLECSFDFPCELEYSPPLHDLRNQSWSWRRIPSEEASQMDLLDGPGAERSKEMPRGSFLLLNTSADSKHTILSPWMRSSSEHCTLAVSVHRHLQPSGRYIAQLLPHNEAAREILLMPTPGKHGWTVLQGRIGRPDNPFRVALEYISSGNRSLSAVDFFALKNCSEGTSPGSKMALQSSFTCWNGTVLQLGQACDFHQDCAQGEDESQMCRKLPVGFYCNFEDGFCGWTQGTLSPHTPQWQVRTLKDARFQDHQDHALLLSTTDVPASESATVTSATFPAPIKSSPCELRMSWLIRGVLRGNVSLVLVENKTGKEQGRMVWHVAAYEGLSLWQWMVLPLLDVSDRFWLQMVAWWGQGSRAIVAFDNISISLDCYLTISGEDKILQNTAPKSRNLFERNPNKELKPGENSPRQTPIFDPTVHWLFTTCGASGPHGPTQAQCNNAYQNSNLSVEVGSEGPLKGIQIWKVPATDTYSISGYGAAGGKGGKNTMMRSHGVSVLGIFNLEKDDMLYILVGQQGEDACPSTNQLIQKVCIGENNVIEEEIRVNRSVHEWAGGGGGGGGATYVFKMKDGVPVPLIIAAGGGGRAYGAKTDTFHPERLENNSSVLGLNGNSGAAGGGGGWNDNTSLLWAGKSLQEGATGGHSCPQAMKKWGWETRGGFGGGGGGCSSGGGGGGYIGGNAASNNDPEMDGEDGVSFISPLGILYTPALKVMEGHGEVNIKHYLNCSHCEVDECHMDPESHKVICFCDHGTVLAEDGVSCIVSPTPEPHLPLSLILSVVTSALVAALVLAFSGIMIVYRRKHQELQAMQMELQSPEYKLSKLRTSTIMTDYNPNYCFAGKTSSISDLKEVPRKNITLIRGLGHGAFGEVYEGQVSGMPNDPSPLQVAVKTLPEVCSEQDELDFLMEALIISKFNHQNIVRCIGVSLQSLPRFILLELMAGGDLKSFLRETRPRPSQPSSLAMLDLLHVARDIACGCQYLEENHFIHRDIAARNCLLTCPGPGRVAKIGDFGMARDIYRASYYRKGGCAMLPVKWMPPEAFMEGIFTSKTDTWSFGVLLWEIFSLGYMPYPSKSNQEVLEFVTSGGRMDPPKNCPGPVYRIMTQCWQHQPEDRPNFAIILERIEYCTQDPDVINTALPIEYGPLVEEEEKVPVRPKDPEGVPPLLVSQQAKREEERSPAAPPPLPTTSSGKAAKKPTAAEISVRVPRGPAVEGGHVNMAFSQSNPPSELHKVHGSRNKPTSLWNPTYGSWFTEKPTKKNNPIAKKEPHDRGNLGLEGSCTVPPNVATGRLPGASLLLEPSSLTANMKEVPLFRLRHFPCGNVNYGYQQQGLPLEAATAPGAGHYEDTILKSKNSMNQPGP

SU-DHL-1 = assay: Antiproliferative activity against human SU-DHL-1 cells; assay type: functional, cell-based
[6] = molecular target: T3, Bromodomain-containing protein 4 (Homo sapiens, UniProt O60885); assay: Induction of BRD4 degradation in human HeLa cells assessed as maximum degradation at 10 nM after 12 hrs relative to control; assay type: cell-based
HeLa = assay: Antiproliferative activity against human HeLa cells; assay type: functional, cell-based
[7] = molecular target: ALK tyrosine kinase receptor (Homo sapiens) (UniProt Q9UM73); assay: Induction of ALK degradation in human SU-DHL-1 cells assessed as maximum degradation at 100 nM pretreated with S-Ac-GSH followed by compound addition and measured after 12 hrs relative to control; assay type: cell-based
[8] = molecular target: ALK tyrosine kinase receptor (Homo sapiens) (UniProt Q9UM73); assay: Induction of ALK degradation in human SU-DHL-1 cells assessed as maximum degradation at 3 uM after 12 hrs relative to control; assay type: cell-based
[9] = molecular target: Bromodomain-containing protein 3 (Homo sapiens, UniProt Q15059); assay: Induction of BRD3 degradation in HEK293 cells after 4 hrs; assay type: cell-based
Sequence of Bromodomain-containing protein 3 (Q15059 whole entry): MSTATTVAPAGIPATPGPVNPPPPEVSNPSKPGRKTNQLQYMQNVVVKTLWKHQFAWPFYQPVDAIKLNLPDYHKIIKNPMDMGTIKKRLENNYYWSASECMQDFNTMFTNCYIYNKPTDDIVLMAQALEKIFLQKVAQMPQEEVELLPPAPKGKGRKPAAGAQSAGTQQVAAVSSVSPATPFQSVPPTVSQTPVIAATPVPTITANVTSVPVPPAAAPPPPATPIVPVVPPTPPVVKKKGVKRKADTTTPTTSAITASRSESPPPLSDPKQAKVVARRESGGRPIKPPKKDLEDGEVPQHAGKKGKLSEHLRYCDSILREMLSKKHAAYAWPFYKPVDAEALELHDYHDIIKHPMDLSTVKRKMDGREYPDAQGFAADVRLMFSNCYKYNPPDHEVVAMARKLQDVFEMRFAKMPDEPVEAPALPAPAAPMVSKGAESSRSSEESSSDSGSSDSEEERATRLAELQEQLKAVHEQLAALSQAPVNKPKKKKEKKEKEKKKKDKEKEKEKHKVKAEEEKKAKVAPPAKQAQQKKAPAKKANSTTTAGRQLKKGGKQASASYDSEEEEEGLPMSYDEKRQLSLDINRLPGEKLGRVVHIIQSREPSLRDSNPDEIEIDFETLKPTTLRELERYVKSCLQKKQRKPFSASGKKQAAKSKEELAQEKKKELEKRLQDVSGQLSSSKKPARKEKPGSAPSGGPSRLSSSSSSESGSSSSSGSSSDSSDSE

MV4-11 = assay: Antiproliferative activity against human MV4-11 cells
[10] = molecular target: T3, Bromodomain-containing protein 4; assay: Induction of BRD4 degradation in HEK293 cells after 4 hrs; assay type: cell-based
[11] = molecular target: Bromodomain-containing protein 2 (Homo sapiens, UniProt P25440); assay: Induction of BRD2 degradation in HEK293 cells after 4 hrs; assay type: cell-based
Sequence of Bromodomain-containing protein 2 (P25440 whole entry): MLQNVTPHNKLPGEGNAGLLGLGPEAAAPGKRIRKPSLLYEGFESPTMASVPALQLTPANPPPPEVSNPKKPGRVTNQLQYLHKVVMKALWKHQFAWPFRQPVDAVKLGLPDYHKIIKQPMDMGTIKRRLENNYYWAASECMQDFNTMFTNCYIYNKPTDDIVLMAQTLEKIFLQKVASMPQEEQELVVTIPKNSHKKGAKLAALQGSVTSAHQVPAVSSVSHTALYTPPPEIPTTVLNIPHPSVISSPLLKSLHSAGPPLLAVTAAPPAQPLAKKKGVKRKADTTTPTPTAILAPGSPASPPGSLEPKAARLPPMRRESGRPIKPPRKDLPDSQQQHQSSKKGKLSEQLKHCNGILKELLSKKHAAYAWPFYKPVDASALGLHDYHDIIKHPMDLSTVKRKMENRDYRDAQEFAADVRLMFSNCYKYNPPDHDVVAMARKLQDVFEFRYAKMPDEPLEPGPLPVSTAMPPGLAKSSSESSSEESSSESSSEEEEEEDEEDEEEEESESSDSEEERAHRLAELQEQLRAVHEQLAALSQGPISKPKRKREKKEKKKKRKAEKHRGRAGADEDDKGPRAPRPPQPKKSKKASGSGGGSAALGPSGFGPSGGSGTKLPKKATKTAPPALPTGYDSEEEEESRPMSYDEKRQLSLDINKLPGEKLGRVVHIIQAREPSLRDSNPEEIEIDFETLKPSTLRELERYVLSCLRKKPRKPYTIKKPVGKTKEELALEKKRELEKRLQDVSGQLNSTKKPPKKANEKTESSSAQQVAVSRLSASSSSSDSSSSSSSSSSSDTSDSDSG

[12] = molecular target: ALK tyrosine kinase receptor (Homo sapiens) (UniProt Q9UM73); assay: Induction of ALK degradation in human SU-DHL-1 cells assessed as maximum degradation at 30 nM after 12 hrs relative to control; assay type: cell-based
HCT-116 [13] = assay: Antiproliferative activity against p53 knockout human HCT-116 cells; assay type: functional, cell-based
A549 [14] = assay: Antiproliferative activity against human A549 cells; assay type: functional, cell-based
[15] = molecular target: E3 ubiquitin-protein ligase Mdm2 (Homo sapiens, UniProt Q00987); assay: Displacement of p53 from human MDM2 by HTRF assay
Sequence of E3 ubiquitin-protein ligase Mdm2 (Q00987 whole entry): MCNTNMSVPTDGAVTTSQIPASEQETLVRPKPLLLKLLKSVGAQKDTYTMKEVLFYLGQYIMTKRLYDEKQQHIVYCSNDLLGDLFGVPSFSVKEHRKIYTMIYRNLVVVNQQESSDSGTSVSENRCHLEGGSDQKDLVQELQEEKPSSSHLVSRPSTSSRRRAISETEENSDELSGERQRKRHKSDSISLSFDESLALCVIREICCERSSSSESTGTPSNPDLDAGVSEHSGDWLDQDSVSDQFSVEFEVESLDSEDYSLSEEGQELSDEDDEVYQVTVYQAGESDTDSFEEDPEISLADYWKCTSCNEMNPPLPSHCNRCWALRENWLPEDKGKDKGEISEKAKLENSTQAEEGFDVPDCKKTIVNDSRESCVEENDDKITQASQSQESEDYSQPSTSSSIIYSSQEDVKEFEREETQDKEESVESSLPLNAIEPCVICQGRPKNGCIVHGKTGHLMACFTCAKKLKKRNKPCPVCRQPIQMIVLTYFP

A549 [16] = assay: Antitumor activity against human A549 cells xenografted model assessed as tumor growth inhibition at 30 mg/kg; assay type: functional; conditions: read-out: TGI
HCT-116 [17] = assay: Antiproliferative activity against human HCT-116 cells; assay type: functional, cell-based
[18] = AUC in mouse; assay type: ADME, organism-based; conditions: in vivo
[19] = Half life in mouse; assay type: ADME, organism-based; conditions: in vivo
[20] = molecular target: T3, Bromodomain-containing protein 4; assay: Induction of BRD4 degradation in human HeLa cells assessed as maximum degradation at 30 nM after 12 hrs relative to control; assay type: cell-based
HFF-1 = assay: Antiproliferative activity against human HFF-1 cells; assay type: functional, cell-based
[21] = system: von Hippel-Lindau disease tumor suppressor/Epidermal growth factor receptor (Homo sapiens), P00533+P40337 [UNDEFINED MUTATION]; assay: Protac activity at VHL/EGFR Del19 mutant in human HCC827 cells assessed as maximum degradation relative to control; assay type: cell-based
HCC827 [22] = assay: Antitumor activity against human HCC827 cells xenografted in mouse assessed as tumor growth inhibition at 30 mg/kg; assay type: functional; conditions: read-out: TGI
NCI-H1975 = assay: Antiproliferative activity against human NCI-H1975 cells harboring EGFR L858R/T790M double mutant; assay type: functional, cell-based
HCC827 [23] = assay: Antiproliferative activity against human HCC827 cells harboring EGFRDel19 mutant; assay type: functional, cell-based
[24] = molecular target: von Hippel-Lindau disease tumor suppressor/Epidermal growth factor receptor (Homo sapiens, UniProt P00533+P40337); assay: Protac activity at VHL/EGFR Del19 mutant in human HCC827 cells; assay type: cell-based

T1 sequence (Q06187 whole entry): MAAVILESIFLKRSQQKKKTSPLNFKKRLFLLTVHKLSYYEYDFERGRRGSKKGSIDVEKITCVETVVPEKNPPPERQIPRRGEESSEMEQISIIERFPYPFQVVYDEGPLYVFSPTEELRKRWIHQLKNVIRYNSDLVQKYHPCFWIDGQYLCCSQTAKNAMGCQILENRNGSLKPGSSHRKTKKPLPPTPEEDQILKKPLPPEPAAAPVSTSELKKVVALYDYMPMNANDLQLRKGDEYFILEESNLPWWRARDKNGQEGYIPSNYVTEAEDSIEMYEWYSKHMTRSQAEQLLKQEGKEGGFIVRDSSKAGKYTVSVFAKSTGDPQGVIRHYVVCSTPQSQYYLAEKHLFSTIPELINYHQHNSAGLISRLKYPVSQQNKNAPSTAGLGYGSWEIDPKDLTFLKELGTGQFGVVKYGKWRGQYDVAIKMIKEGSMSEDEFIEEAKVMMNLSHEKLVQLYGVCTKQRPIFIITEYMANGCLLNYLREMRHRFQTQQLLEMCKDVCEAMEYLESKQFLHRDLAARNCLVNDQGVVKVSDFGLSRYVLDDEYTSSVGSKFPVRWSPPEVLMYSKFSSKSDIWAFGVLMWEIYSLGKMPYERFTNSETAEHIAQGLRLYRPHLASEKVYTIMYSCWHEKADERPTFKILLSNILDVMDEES

SMILES: Cc1ncsc1-c1ccc(CNC(=O)[C@@H]2C[C@@H](O)CN2C(=O)[C@@H](NC(=O)COCCCCCOCCOCCCCCOCC(=O)NCCNc2cccc3c2C(=O)N(C2CCC(=O)NC2=O)C3=O)C(C)(C)C)cc1 (stereo partly specified)
Emax (Protein cereblon [3]): 75%
DC50 (Protein cereblon [4]): 200 nM

SMILES: Cc1ncsc1-c1ccc([C@H](C)NC(=O)[C@@H]2C[C@@H](O)CN2C(=O)[C@@H](NC(=O)COCCCOCCNC(=O)C[C@@H]2N=C(c3ccc(Cl)cc3)c3c(sc(C)c3C)-n3c(C)nnc32)C(C)(C)C)cc1
Emax [6]: 100%
IC50 (HeLa): 183 nM

SMILES: CCOc1cc(C(C)(C)C)ccc1C1=N[C@@H](c2ccc(Cl)cc2)[C@@H](c2ccc(Cl)cc2)N1C(=O)N1CCN(CC(=O)NCCOCCOCCOCCNC(=O)CN2CCN(C(=O)N3C(c4ccc(C(C)(C)C)cc4OCC)=N[C@H](c4ccc(Cl)cc4)[C@@H]3c3ccc(Cl)cc3)CC2=O)C(=O)C1
IC50 (HCT-116 [13]): 21000 nM
IC50 (A549 [14]): 580 nM
Ki [15]: 90 nM
inhibition in vivo at 30 mg/kg (A549 [16]): 52.4%
IC50 (HCT-116 [17]): 1100 nM
AUC [18]: 42800 ng·h/mL
half-life [19]: 9.6 h

SMILES: COc1ccc(C2=N[C@@H](c3ccc(Cl)cc3)[C@@H](c3ccc(Cl)cc3)N2C(=O)N2CCNC(=O)C2)c(OC(C)C)c1 [NUTLIN-3]
IC50 (A549 [14]): 7900 nM
IC50 (HCT-116 [17]): 5000 nM

SMILES: Cc1ncsc1-c1ccc([C@H](C)NC(=O)[C@@H]2C[C@@H](OC(=O)CCCCn3cc(CNC(=O)CC[C@H](NC(=O)c4ccc(NCc5cnc6nc(N)[nH]c(=O)c6n5)cc4)C(=O)O)nn3)CN2C(=O)[C@@H](NC(=O)COCCCOCCNC(=O)C[C@@H]2N=C(c3ccc(Cl)cc3)c3c(sc(C)c3C)-n3c(C)nnc32)C(C)(C)C)cc1
Emax [20]: 100%
IC50 (HFF-1): > 10000 nM
IC50 (HeLa): 246 nM

SMILES: Cc1ncsc1-c1ccc(CNC(=O)[C@H]2C[C@H](O)CN2C(=O)[C@H](NC(=O)CCCCCCCCCCn2cc(COc3cc4ncnc(Nc5ccc(F)c(Cl)c5)c4cc3NC(=O)/C=C/N3CCCCC3)nn2)C(C)(C)C)cc1
Emax [21]: 91%
inhibition in vivo at 30 mg/kg (HCC827 [22]): 90%
IC50 (NCI-H1975): > 20 nM
IC50 (HCC827 [23]): 6 nM
DC50 [24]: 3.57 nM

The remaining lines, values ahead:

DC50 [1]: 1.9 nM
Emax [2]: 88%
SMILES: Nc1ncnc2c1c(-c1ccc(Oc3ccccc3)cc1)nn2[C@@H]1CCCN(C(=O)/C=C/CCCCOCCOCCOCCOCCOc2cccc3c2C(=O)N(C2CCC(=O)NC2=O)C3=O)C1 (stereo partly specified)

DC50 [1]: 2.2 nM
Emax [2]: 97%
SMILES: Nc1ncnc2c1c(-c1ccc(Oc3ccccc3)cc1)nn2[C@@H]1CCCN(C(=O)CCCCCCOCCOCCOCCOCCOc2cccc3c2C(=O)N(C2CCC(=O)NC2=O)C3=O)C1 (stereo partly specified)

Emax [5]: 100%
IC50 (SU-DHL-1): 200 nM
SMILES: Cc1cc(Nc2ncc(Cl)c(Nc3ccccc3S(=O)(=O)C(C)C)n2)c(OC(C)C)cc1C1CCN(CCCCC(=O)N[C@H](C(=O)N2C[C@H](OC(=O)CCCCn3cc(CNC(=O)CC[C@H](NC(=O)c4ccc(NCc5cnc6nc(N)[nH]c(=O)c6n5)cc4)C(=O)O)nn3)C[C@H]2C(=O)N[C@@H](C)c2ccc(-c3scnc3C)cc2)C(C)(C)C)CC1

Emax [7]: 100%
Emax [8]: 100%
IC50 (SU-DHL-1): 465 nM
SMILES: Cc1cc(Nc2ncc(Cl)c(Nc3ccccc3S(=O)(=O)C(C)C)n2)c(OC(C)C)cc1C1CCN(CC(=O)NCCNc2cccc3c2C(=O)N(C2CCC(=O)N(C(=O)OCCSSCCn4cc(CNC(=O)CC[C@H](NC(=O)c5ccc(NCc6cnc7nc(N)[nH]c(=O)c7n6)cc5)C(=O)O)nn4)C2=O)C3=O)CC1 (stereo partly specified)

DC50 [9]: 3.3 nM
IC50 (MV4-11): 1.1 nM
DC50 [10]: 0.7 nM
DC50 [11]: 1.1 nM
SMILES: Cc1ncsc1-c1ccc(CNC(=O)[C@@H]2C[C@@H](O)CN2C(=O)[C@@H](NC(=O)OCC(C)(COCCOCCOCCNC(=O)C[C@@H]2N=C(c3ccc(Cl)cc3)c3c(sc(C)c3C)-n3c(C)nnc32)COCCOCCOCCNC(=O)C[C@@H]2N=C(c3ccc(Cl)cc3)c3c(sc(C)c3C)-n3c(C)nnc32)C(C)(C)C)cc1

Emax [12]: 90%
IC50 (SU-DHL-1): 16 nM
SMILES: Cc1cc(Nc2ncc(Cl)c(Nc3ccccc3S(=O)(=O)C(C)C)n2)c(OC(C)C)cc1C1CCN(CC(=O)NCCNc2cccc3c2C(=O)N(C2CCC(=O)NC2=O)C3=O)CC1 (stereo unspecified)
